Laboratory results taken from PubChem BioAssay (NCI).
“And” between values parts separate entries of the source, which are not always exact repeats. Equal values may be shown once.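 A five-concentration, 48-hour dose response in 96-well plates underlies each endpoint, interpolated linearly between surrounding concentrations. The concentration for 50% growth inhibition is given as GI50. TGI denotes the concentration required for complete inhibition of growth.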

Tests used:
Assay in all cases: NCI-60 cell line screen, 48 h
[1] = test system: CAKI-1 renal
[2] = test system: HOP-62 NSCLC
[3] = test system: K-562 leukemia
[4] = test system: NCI-H23 lung
[5] = test system: OVCAR-8 ovarian
[6] = test system: SK-MEL-28 melanoma
[7] = test system: UACC-62 melanoma
[8] = test system: MOLT-4 leukemia
[9] = test system: DU-145 prostate
[10] = test system: NCI/ADR-RES ovarian

| Compound | TGI [1] [µM] | TGI [2] | TGI [3] [µM] | TGI [4] | TGI [5] [µM] | TGI [6] | TGI [7] | TGI [8] | GI50 [9] [µM] | TGI [9] [µM] | GI50 [2] [µM] | GI50 [3] [µM] | GI50 [8] [µM] | GI50 [4] [µM] | GI50 [10] [µM] | TGI [10] [µM] | GI50 [5] [µM] | GI50 [6] [µM] | GI50 [7] [µM] | GI50 [1] [µM] |
| --- | --- | --- | --- | --- | --- | --- | --- | --- | --- | --- | --- | --- | --- | --- | --- | --- | --- | --- | --- | --- |
| O=C(N/N=C1\C(=O)N(c2nccs2)C(=O)C(=O)C1c1nc2ccccc2s1)c1ccccc1O (configuration not stated) | > 100 | 90.4 µM | > 100 | > 100 µM | > 100 | > 100 µM | > 100 µM |  |  |  |  |  |  |  |  |  |  |  |  |  |
| C=C1C(OC(=O)/C=C/c2ccccc2)CC(OC(C)=O)C2(C)C1CC1CC(OC(C)=O)C(C)=C(C(OC(C)=O)C2OC(C)=O)C1(C)C (configuration not stated) | > 100 | > 100 µM | > 100 |  | > 100 |  | > 100 µM | > 100 µM |  |  |  |  |  |  |  |  |  |  |  |  |
| CC(=[N-])N1CCC[C@@H](Nc2c3ccccc3nc3ccccc23)C1.[Cl][Pt].[NH-]CCC[NH-] |  | > 100 µM | > 100 | 2.75 µM | > 100 | 2.31 µM | 0.114 µM | > 100 µM | 0.0326 | > 100 | 1.72 | 0.375 | 0.359 | 0.198 | 46 | > 100 | 1.04 | 0.21 | 0.0295 |  |
| N#Cc1cc(S(=O)(=O)Nc2nnc(-c3ccccc3)c(-c3ccccc3)n2)c(SCc2ccccc2)cc1Cl | 42.1 | 83.5 µM | > 100 | > 100 µM | 56.7 | 91.3 µM | 48.7 µM | > 100 µM | 20.1 | 41.6 | 28.3 | 27.2 | 9.82 | > 100 |  |  | 28.5 | 35.2 | 20.5 | 21.3 |
| COC(=O)C12OCC34C(CC5C(C)C6=CC(=O)OC6=CC5(C)C3C(O)C1O)OC(=O)C(O)C24 (configuration not stated) | 30 | 0.704 µM and 3.54 µM | 6.94 | 0.493 µM and 1.16 µM | 14.7 | 0.933 µM and 2.29 µM | 0.779 µM and 1.91 µM | 0.375 µM and 1.27 µM |  |  | 0.177 | 0.0468 | 0.0314 | 0.156 |  |  | 0.328 | 0.0899 | 0.262 |  |
| CC1(N)CCN(c2cnc(-c3cccc(Cl)c3Cl)c(N)n2)CC1 | > 100 | 61.5 µM |  | > 100 µM | > 100 | 32.3 µM | 39.9 µM | 99.3 µM | 56.5 | > 100 | 4.28 |  | 22.7 | 5.99 | 17 | > 100 | 28.2 | 16.3 | 19.1 | 14.8 |
| C/C=C(\CCOS(=O)(=O)c1ccc(C)cc1)[Si](C)(C)C |  |  | > 100 | > 100 µM | > 100 | > 100 µM | > 100 µM | > 100 µM |  |  |  |  |  |  |  |  |  |  |  |  |
| O=C1C=CC(=O)N1c1cccc(N2C(=O)C=CC2=O)c1 |  | 33.5 µM | 7.7 | 7.07 µM | 5.17 | 3.78 µM | 9.46 µM | 7.73 µM | 10.9 | 22.8 | 16.8 | 2.67 | 2.74 | 2.54 | 2.38 | 6.14 | 2.25 | 1.95 | 2.48 |  |
| Cc1ccc(NC(=O)CSc2nnc3n(Cc4ccccc4)c(=O)c4c(C)c(C(N)=O)sc4n23)cc1 | > 100 | 56 µM | > 100 | > 100 µM | > 100 |  | > 100 µM | 81.5 µM | 60.5 | > 100 | 21 | 42.5 | 27.3 | 17.3 | > 100 | > 100 | > 100 |  | > 100 | > 100 |
| CC(=O)O[C@@]1(C)[C@@H](C)C(=O)O[C@@H]2CCN3CC=C(COC(=O)[C@]1(C)O)[C@H]23 | > 100 | > 100 µM | > 100 | > 100 µM | > 100 | > 100 µM | > 100 µM | > 100 µM |  |  |  |  |  |  |  |  |  |  |  |  |
| O=C1C2C(C(=O)N1c1ccccc1)C1([N+](=O)[O-])C=C3c4ccccc4N(C(=O)c4ccccc4)C32C2C(=O)N(c3ccccc3)C(=O)C21 (configuration not stated) | > 100 | > 100 µM | > 100 | > 100 µM | > 100 | > 100 µM | > 100 µM | > 100 µM |  |  |  |  |  |  |  |  |  |  |  |  |
| NC1=NN(c2ccccc2)C(=O)C1C(=O)C(=O)Nc1nccs1 (configuration not stated) | > 100 | > 100 µM | > 100 | > 100 µM | > 100 | > 100 µM | > 100 µM | > 100 µM |  |  |  |  |  |  |  |  |  |  |  |  |
| Cc1ccc(C(=O)/C=C/c2cccc([N+](=O)[O-])c2)cc1 | > 100 | > 100 µM | 66.5 | > 100 µM | > 100 | > 100 µM | > 100 µM | 7.39 µM |  |  |  |  |  |  |  |  |  |  |  |  |
| Cc1cccc(C(C)(C)C)c1NC(=O)CCc1nc(=S)[nH][nH]1 | > 100 | > 100 µM | > 100 | > 100 µM | > 100 | > 100 µM | > 100 µM | > 100 µM |  |  |  |  |  |  |  |  |  |  |  |  |
| CC(=O)O[C@H](C[C@H](C(C)C)N(C)C(=O)[C@@H](NC(=O)[C@H]1CCCN1C)C(C)C)c1nc(C(=O)N[C@@H](Cc2ccccc2)C[C@H](C)C(=O)O)c(C)s1 |  | > 16.7 µM | > 16.7 | > 16.7 µM | > 16.7 | > 16.7 µM | > 16.7 µM | > 16.7 µM | 0.00224 | > 16.7 | < 0.00167 | < 0.00167 | < 0.00167 | 0.00531 | 0.102 | > 16.7 | 0.0033 | 0.00557 | < 0.00167 |  |
| O=C(CC(=O)c1cccc2ccccc12)C(=O)NC1C2CC3CC(C2)CC1C3 (configuration not stated) | > 100 | > 100 µM | > 100 | > 100 µM | > 100 |  | > 100 µM | > 100 µM |  |  |  |  |  |  |  |  |  |  |  |  |
| Cc1cccc2c1CCC21OC(=O)c2c1ccc1ccccc21 (configuration not stated) | > 100 | > 100 µM | 66.7 | 98.7 µM | > 100 | > 100 µM | > 100 µM | 79.8 µM |  |  |  |  |  |  |  |  |  |  |  |  |
